{"source": "patent US5670506A", "about": "“Halogen, isothiocyanate or azide substituted xanthines” (Cell Therapeutics, Inc., priority 1993, dated 1997)", "format_in_all_cases": "cell-based", "key": {"[1]": {"test_system": "PBMC (peripheral blood mononuclear cells)", "assay": "two-way mixed lymphocyte reaction (MLR), immune suppression", "conditions": "Homo sapiens, 144 h, allogeneic stimulation of PBMC, 6 days", "text": "Various in vitro assays can be used to measure effects of the inventive compounds to module immune activity and have antitumor activity using a variety of cellular types. For example, a mixed lymphocyte reaction (MLR) provides a valuable screening tool to determine biological activity of each inventive compound. In the MLR, PBMCs (peripheral blood mononuclear cells) are obtained by drawing whole blood from healthy volunteers in a heparinized container and diluted with an equal volume of hanks balanced salt solution (HBSS). This mixture is layered on a sucrose density gradient, such as a Ficoll-Hypaque® gradient (specific gravity 1.08), and centrifuged at 1000× g for 25 minutes at room temperature or cooler. PBMC are obtained from a band at a plasma-Ficoll interface, separated and washed at least twice in a saline solution, such as HBSS. Contaminating red cells are lysed, such as by ACK lysis for 10 rain at 37° C., and the PBMCs are washed twice in HBSS. The pellet of purified PBMCs is resuspended in complete medium, such as RPMI 1640 plus 20% human inactivated serum. Proliferative response of PBMC to allogeneic stimulation is determined in a two-way MLR performed in a 96-well microtiter plate. […] At the conclusion of the incubation tritiated thymidine is added (for example, 1 μCi/well of 40 to 60 Ci/mmole) and proliferation determined by liquid scintillation counting. […]"}, "[2]": {"test_system": "human lymphocytes", "assay": "inhibition of blast formation from human lymphocytes stimulated by IL-2", "conditions": "Lymphocyte, FIG. 10, read-out: IC50, blastogenesis stimulated by IL-2", "protocol": "(§1) This is a human in vitro assay for immunosuppressive activity of the inventive compounds.\n(§2) A third assay measures an ability of an inventive compound to inhibit IL-2-induced proliferation of murine thymocytes. Thymus glands are obtained from 4-6 week old mice and plated as a single cell suspension into flat bottomed wells in RPMI 1640 medium supplemented with 10% fetal calf serum. The inventive compounds are added to appropriate wells and the cells are incubated for 1-2 hrs. Concanavilin A (ConA, 0.25 μg/ml) and IL-1 (20 ng/ml) are added and the plates are incubated for 4 days. Cell proliferation is determined as above. There are also variations for this assay that follow the same basic stimulation and measure inhibition of proliferation format. For example, splenocytes can be used instead of thymocytes to measure more of a B cell response than a T cell response (e.g., thymocytes) and stimulated by an anti-mu antibody (40 μg/ml), IL-4 or PMA (2.5 nM). Similarly, human lymphocytes can be used from normal human volunteers and stimulated with human IL-2 (100 U/ml, Genzyme) and/or anti-CD3 antibody (2.5 μg/ml, Boehinger Mannheim).\n(§3) This example illustrates an experiment showing the effects of CT1525, CT1529 and CT1595 (see Table 1 above for chemical names) on inhibition of blast formation from human lymphocytes stimulated by IL-2 or an anti-CD3 antibody (FIG. 10). […]"}, "[3]": {"test_system": "human lymphocytes", "assay": "inhibition of blast formation from human lymphocytes stimulated by anti-CD3 antibody", "conditions": "Lymphocyte, FIG. 10, read-out: IC50, blastogenesis stimulated by anti-CD3", "protocol": "as §1, §2, §3"}, "[4]": {"test_system": "TNF release from monocytes in whole blood", "assay": "ex vivo human TNF model, LPS-mediated TNF release in whole blood", "conditions": "FIG. 14", "protocol": "(§4) This model adds LPS to whole blood (normal human volunteers) to trigger a dose-dependent synthesis and extracellular release of TNF according to Desch et al. (Lymphokine Res. 8:141, 1989). The ex vivo model examines whether LPS-mediated release of TNF from monocytes in whole blood can be block by an inventive compound.\nAn ex vivo human sepsis model is described in Desch et al., Lymphokine Res. 8:141, 1989 and in Ooi et al., J. Exp. Med. 174:649, 1991. Briefly, whole blood from humans is incubated with LPS (endotoxin). TNF released from cells (mostly from monocytes) is measured. The inventive compounds lower TNF levels as compared with untreated controls in this model.\nas §4, with “This example illustrates a comparative experiment comparing CT1595, CT1529 and CT2519 in an ex vivo human TNF model described herein. This assay is a predictive model for treatment and prevention of septic shock and sepsis syndrome. This” for “This”"}, "[5]": {"test_system": "CMV promoter activity in transformed (adenovirus) cells", "assay": "CMV promoter assay (gene transcription and translation, cytotoxic activity)", "conditions": "read-out: IC50 (μM), CMV promoter assay", "text": "This example illustrates data regarding proliferative activity of various inventive compounds for inducting CMV promoter activity. The CMV promoter assay measures gene transcription and translation activity wherein any active compounds will nave cytotoxic activity to inhibit cellular protein synthesis machinery in transformed (adenovirus) cells."}}, "data": [{"compound": "Cn1cnc2c1c(=O)n(CCCCC(=O)CCl)c(=O)n2C", "note": "[CT1595, 1-(6-chloro-5-oxohexyl)-3,7-dimethylxanthine]", "values": [{"measurement": "IC50", "setting": "[1]", "value": "< 10", "unit": "µM"}, {"measurement": "IC50", "setting": "[2]", "value": "< 5", "unit": "µM"}, {"measurement": "IC50", "setting": "[3]", "value": "< 5", "unit": "µM"}, {"measurement": "block of LPS-mediated TNF release", "setting": "[4]", "value": "could block TNF release in a dose-dependent fashion"}, {"measurement": "IC50", "setting": "[5]", "value": 20, "unit": "µM"}]}]}
